Laboratory results published in patent publication US7947703B2, “Phenanthridinium derivatives as DNA binding agents” (University Court of the University of Glasgow, priority 2003, dated 2011).
Marks after values point to notes of the source that are not given here.

Tests used:
Calf DNA = assay: DNA affinity by Isothermal Titration Calorimetry (ITC), Calf DNA; format: binding
Protocol: (§1) DIP cytotoxicity was determined by a tetrazolium dye-based microtitration assay. DNA affinity measurements of DIPs were undertaken using Isothermal Titration Calorimetry (ITC).

DNA = assay: Viscosimetry analysis (DNA intercalation); details: preliminary result
[1] = tested on: human ovarian tumour cell line A2780; assay: growth (tetrazolium dye-based microtitration) cytotoxicity assay, A2780; format: cell-based
Protocol: (§2) Compounds were tested in a growth assay with a 24 hours drug exposure and a 3 day recovery period. Cell lines used were human ovarian tumour cell line A2780 and 2 Cisplatin resistant derivatives cell lines A27080/cp70 and MCP1. IC50 is the concentration of drug required to reduce the surviving cell number to 50% of that of the control untreated cells. Results are from one experiment and are the mean±SEM of the triplicate plates.
as §1

[2] = tested on: Cisplatin resistant cell line MCP1; assay: growth (tetrazolium dye-based microtitration) cytotoxicity assay, MCP1; format: cell-based, human
Protocol: as §2, §1

Salmon DNA = assay: DNA affinity by Isothermal Titration Calorimetry (ITC), Salmon DNA; format: binding
Protocol: as §1

[3] = tested on: Cisplatin resistant cell line A2780/cp70; assay: growth (tetrazolium dye-based microtitration) cytotoxicity assay, A2780/cp70; format: cell-based, human
Protocol: as §2, §1

## c1ccc2c(c1)c1[n+](c3ccccc23)CCN1 [AP5-94, 2,3-Dihydro-1H-imidazo[1,2-f]phenanthridin-4-ylium bromide]
Calf DNA
  Ka Calf DNA: 2.06 ± 907 M^−1 (10^4)
DNA
  viscosity of DNA (in words): increase of viscosity similar to the one obtained with the DNA intercalator reference ethidium bromide
[1]
  cytotoxicity on cisplatin-sensitive cell line A2780 (in words): high cytotoxicity
[1]; Homo sapiens, A2780, cisplatin-sensitive line, 24 hours drug exposure, 3 day recovery, mean±SEM of triplicate plates
  IC50: 1560 ± 180 nM
[2]
  more active on MCP1 than A2780: 50%
[2]; Homo sapiens, cisplatin-resistant line, 24 hours drug exposure, 3 day recovery, mean±SEM of triplicate plates
  IC50: 820 ± 90 nM
[2]; rapport of the IC50 between A2780 and MCP1, the lower RF the better
  RF2: 0.5
Salmon DNA
  Ka Salmon DNA: 2.56 ± 802.6 M^−1 (10^4)
[3]
  less active on A2780/cp70 than on A2780: 50%
[3]; Homo sapiens, A2780/CP70, cisplatin-resistant line, 24 hours drug exposure, 3 day recovery, mean±SEM of triplicate plates
  IC50: 2300 ± 150 nM
[3]; rapport of the IC50 between A2780 and A2780/cp70, the lower RF the better
  RF1: 1.5
